Measured values taken from PubChem BioAssay (NCI).
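Five compound concentrations were applied to cells in 96-well plates for 48 hours; endpoints were derived by simple linear interpolation of the resulting dose-response curve. At the GI50, growth is halved. At the TGI there is no net growth.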

Columns and labels:
Assay in all cases: inhibition of tumour cell growth, NCI panel, 48 h
NCI-H23 lung = tested on: NCI-H23 lung
TK-10 renal = tested on: TK-10 renal
HCT-116 colon = tested on: HCT-116 colon
HT29 colon = tested on: HT29 colon
UACC-257 melanoma = tested on: UACC-257 melanoma
IGROV1 ovarian = tested on: IGROV1 ovarian
SNB-75 CNS = tested on: SNB-75 CNS
OVCAR-5 ovarian = tested on: OVCAR-5 ovarian
PC-3 prostate = tested on: PC-3 prostate
MDA-MB-435 = tested on: MDA-MB-435

SMILES	TGI (NCI-H23 lung) [µM]	TGI (TK-10 renal) [µM]	TGI (HCT-116 colon) [µM]	TGI (HT29 colon) [µM]	TGI (UACC-257 melanoma) [µM]	TGI (IGROV1 ovarian) [µM]	TGI (SNB-75 CNS) [µM]	TGI (OVCAR-5 ovarian) [µM]	GI50 (NCI-H23 lung) [µM]	GI50 (TK-10 renal) [µM]	GI50 (PC-3 prostate) [µM]	TGI (PC-3 prostate) [µM]	GI50 (HT29 colon) [µM]	GI50 (UACC-257 melanoma) [µM]	GI50 (SNB-75 CNS) [µM]	GI50 (OVCAR-5 ovarian) [µM]	GI50 (HCT-116 colon) [µM]	GI50 (IGROV1 ovarian) [µM]	GI50 (MDA-MB-435) [µM]	TGI (MDA-MB-435) [µM]
C/C(CC(=O)Nc1cccc([N+](=O)[O-])c1)=N\NC(=O)C[n+]1ccccc1	> 100	> 100	> 100	> 100	> 100	> 100	> 100	> 100	–	–	–	–	–	–	–	–	–	–	–	–
N/C(=N\C(N)=N\c1nc2ccccc2s1)c1cnccn1	24.8	7.96	–	> 100	5.26	–	15.3	> 100	3	2.53	3.78	> 100	2.87	2.13	2.15	3.68	–	–	–	–
COc1ccc(OCC(O)CN2CCN(c3ccc(Cl)cc3)CC2)cc1 (stereo not drawn)	> 100	–	> 100	> 100	> 100	> 100	83.5	> 100	> 100	–	> 100	> 100	> 100	> 100	17	> 100	> 100	18.1	> 100	> 100
c1ccc2c3c([nH]c2c1)C1C2CCCCN2C(c2ccncc2)N1CC3 (stereo not drawn)	> 100	–	> 100	> 100	> 100	–	89	> 100	–	–	–	–	–	–	–	–	–	–	–	–
CCCCCCCCCCCCCCCC(=O)OCC1OC(n2cc(F)c(=O)[nH]c2=O)C(NC(=O)N(CCCl)N=O)C(O)C1O (stereo not drawn)	2.84	26.1	3.07	14.1	17.8	18.1	1.56	25.9	–	–	–	–	–	–	–	–	–	–	–	–
COC(=O)CC1CC2(C(=O)OC)c3[nH]c4ccccc4c3CCN2C1=O (stereo not drawn)	> 100	> 100	> 100	> 100	> 100	> 100	> 100	> 100	–	–	–	–	–	–	–	–	–	–	–	–
O=C(N/N=C/c1ccc(F)cc1)c1ccc(C(F)(F)F)nc1Nc1cccc(C(F)(F)F)c1	11.9	3.86	2.79	5.23	6.72	4.84	10.2	9.12	2.58	0.582	–	–	2.02	2.23	1.64	1.34	0.65	1.68	2.66	10
COc1ccc2c(c1)[n+](=O)c(C(C)=O)c(C)n2[O-]	> 100	> 100	> 100	> 100	> 100	> 100	–	> 100	–	–	–	–	–	–	–	–	–	–	–	–
O=C(Nc1ccc(C(F)(F)F)cc1[N+](=O)[O-])c1cccnc1	> 100	> 100	> 100	–	> 100	> 100	> 100	> 100	–	–	–	–	–	–	–	–	–	–	–	2.5
COC(=O)C1CCC(=O)N1/C(C)=N/NC(=O)Nc1ccc(Cl)c(Cl)c1 (stereo not drawn)	> 100	> 100	> 100	–	> 100	> 100	> 100	–	–	–	–	–	–	–	–	–	–	–	–	–
O=c1[nH]c2ccc([N+](=O)[O-])c(Cl)c2c2ccccc12	24.7	11.3	> 100	10.6	15.6	28.9	56.7	35.4	–	–	–	–	–	–	–	–	–	–	–	7.6
Clc1ccc2c(NCCCN3CCN(c4nc(N5CCOCC5)nc5ccccc45)CC3)ccnc2c1	–	4.56	2.59	3.71	3.42	–	3.3	6.34	–	2.04	–	–	1.62	1.77	1.85	2.5	1.25	–	1.81	3.36
C=C(Cn1c2ccccc2c(=O)c2ccccc21)c1ccc(C(=O)Nc2ccccc2N)cc1	> 100	> 100	> 100	> 33.6	> 100	> 100	> 28	> 100	45.1	> 28.9	0.761	> 100	2.52	> 100	1.08	> 100	4.5	> 19.8	–	–
CCCCCCCCCCCCCCC(C)CCC(=O)O (stereo not drawn)	> 100	> 100	> 100	> 100	> 100	> 100	> 100	> 100	–	–	–	–	–	–	–	–	–	–	–	–
COc1cc(/C=C\c2cc(OC)c(OC)c(OC)c2)cc(NS(=O)(=O)c2ccc(Cl)cc2)c1OC	> 100	99.6	> 100	10.2	> 100	> 100	–	> 100	0.71	0.779	0.395	> 100	0.348	12.5	–	0.726	0.469	0.904	0.188	0.44
CC1=CCN(c2ccccn2)OC1c1ccccc1 (stereo not drawn)	> 100	–	> 100	> 100	> 100	> 100	> 100	> 100	–	–	–	–	–	–	–	–	–	–	–	–
CCOc1ccccc1NC(=O)C1=C(C)NC(C)=C(C(=O)Nc2ccccc2OCC)C1c1ccc([N+](=O)[O-])cc1	> 100	–	> 100	> 100	> 100	> 100	> 100	> 100	–	–	–	–	–	–	–	–	–	–	–	–
O=C(/C=C(\[O-])c1ccccc1)CCCCCCC(=O)/C=C(\[O-])c1ccccc1.O=C(/C=C(\[O-])c1ccccc1)CCCCCCC(=O)/C=C(\[O-])c1ccccc1.O=C(/C=C(\[O-])c1ccccc1)CCCCCCC(=O)/C=C(\[O-])c1ccccc1.[Nd+3].[Nd+3]	> 50	> 50	> 50	> 50	> 50	> 50	> 50	> 50	> 50	> 50	–	–	> 50	> 50	3.3	> 50	> 50	> 50	–	–
